Data from patent US12012401B2, “Process for preparing N-(5-(3-(7-(3-fluorophenyl)-3H-imidazo[4,5-c]pyridin-2-yl)-1H-indazol-5-yl)pyridin-3-yl)-3-methylbutanamide” (BioSplice Therapeutics, Inc., priority 2016, dated 2024).

Assays:
Format in all cases: physicochemical
[1] = Heating in DSC chamber, then XRD scan (form conversion)
Procedure: The Form 1 solid was heated in a DSC chamber to 305° C. (past the endotherm/exotherm around 280° C.), and then scanned by XRD. […] Thus, the endotherm/exotherm around 280° C. might be due to melting/crystallization events.
The Form 2 solid was heated in a DSC machine to 90° C. (past the endotherm between 50-100° C.); to 270° C. (past the endotherm/exotherm around 240° C.); and finally to 330° C. (past the exotherm […]). The residual solid was analyzed by XRD. […] The endotherm between 50-100° C. might be free solvent or hydrate. […] Thus, the exotherm around 290° C. was a re-crystallization event. According to an XRD and DSC overlay, the behavior of Form 2* was similar to Form 2.
Form 13 solid was heated in a DSC chamber to 170° C. (past the endotherm between 50-100° C.), and then scanned by XRD. […] It can be concluded that the endotherm between 50-100° C. is due to bonded water.
Form 13 solid was heated in a DSC chamber to 330° C. (past the endotherm/exotherm around 300° C.), and then scanned by XRD. […] It can be concluded that the endotherm/exotherm is due to melting/crystallization events.

[2] = Dynamic vapor sorption (DVS) scan; settings: at 90% RH
Excerpt: The purity of the Form 13 sample was 98.8%; the KF of an undried Form 13 sample was 35.7%.

[3] = Competitive reslurry experiments between polymorph forms (thermodynamic stability); settings: water at RT and 50° C.; 3-5 days
Procedure: In order to find out the thermodynamic stability between the different forms, several competitive reslurry experiments were carried out. Form 1, Form 2, Form 2*, Form 3, Form 4, Form 4*, Form 4**, Form 5, Form 7, Form 8, Form 9, Form 10, Form 11, Form 11*, and Form 13 (10 mg for each) were mixed and slurried in 2 mL of solvent at both RT and 50° C. The solids were slurried for 3-5 days and then analyzed by XRD.

[4] = Form conversion on drying (XRD); settings: upon drying
Procedure: The Form 1 solid was dried at 75° C. under vacuum overnight, and XRD, DSC, and TGA scans were performed. […] However, the DSC scans indicated the absence of endotherm. The loss of the early peak on the DSC scan had no effect on the XRD trace, showing that the endotherm between 50-100° C. on DSC scan was due to the free solvent. The purity of the Form 13 sample was 98.8%; the KF of an undried Form 13 sample was 35.7%. […] Solvates 1 and 2 solids were exposed to air overnight, and then analyzed by XRD. After the analysis, the solids were dried at 50° C. under vacuum, and then analyzed by XRD again.

[5] = Competitive reslurry of Form 1, Form 9 and Form 13 (stability of Form 13 vs Form 9); settings: toluene, IPAc, n-butyl acetate; 3 days at RT and 50° C.
Procedure: In order to find out the thermodynamic stability between Form 13 and Form 9, several competitive reslurry experiments were carried out. 15 mg of Form 1, Form 9 and Form 13 solids were mixed in 1 mL of toluene, IPAc, and n-butyl acetate, and slurried for 3 days at RT and 50° C.
The residual solid was analyzed by XRD.

[6] = Reslurry experiments in various solvents (polymorph screen)
Procedure: Reslurry experiments in various solvents were performed. Approximately 30-80 mg of the starting solid (a non-stoichiometric hydrate of Form 1 having between 1% and about 20% by weight water) was slurried in 39 different solvents (pure and binary solvents; the ratio of organic solvent/water (V/V) was 95%/5%) at RT and 50° C. for 5 days. Three solvates, one non-stoichiometric hydrate, and eleven non-solvated forms were identified. […] XRD of both wet and dry samples were scanned (FIG. 12A (dry sample)).

[7] = Solubility of the starting solid by the gravimetric method; settings: at RT and at 50° C. in all solvents tested except DMF and DMSO
[8] = Acetontrile/water (5% water), 50° C.
[9] = Heptane/water (5% water), 50° C.
[10] = Toluene/water (5% water), 50° C.
[11] = n-Butanol/water (5% water), 50° C.
[12] = n-Butyl acetate/water (5% water), 50° C.
[13] = n-Butyl acetate/water (5% water), RT

With `CC(C)CC(=O)Nc1cncc(-c2ccc3[nH]nc(-c4nc5c(-c6cccc(F)c6)cncc5[nH]4)c3c2)c1` [Form 13, N-(5-(3-(7-(3-fluorophenyl)-3H-imidazo[4,5-c]pyridin-2-yl)-1H-indazol-5-yl)pyridin-3-yl)-3-methylbutanamide] the “form after heating (XRD)” value ([1]; heated in a DSC chamber to 170° C.) was “converted to Form 1”, the “form after heating (XRD)” value ([1]; heated to 330° C.) was “converted to Form 9” and the “water absorption (DVS scan)” value [2] was 17%. For the same compound, the “thermodynamic stability in competitive reslurry” value [3] was “most stable”, the “form change upon drying” value [4] was “converted to Form 1” and the “thermodynamic stability between Form 13 and Form 9” value [5] was “difficult to tell which one was more stable”. For the same compound, the “Form; Dry” value [6, 8] was “Form 13”, the “Form; Wet” value [6, 8] was “Form 13” and the “Form; Dry” value ([6]; DCM, 50° C.) was “Form 13”. The “Form; Wet” value ([6]; DCM, 50° C.) was “Form 13”, the “Form; Dry” value ([6]; DCM/water (5% water), 50° C.) was “Form 1” and the “Form; Wet” value ([6]; DCM/water (5% water), 50° C.) was “Form 13”. The “Form; Dry” value ([6]; DCM/water (5% water), RT) was “Form 1”, the “Form; Wet” value ([6]; DCM/water (5% water), RT) was “Form 13” and the “Form; Dry” value ([6]; Heptane, 50° C.) was “Form 13”. The “Form; Wet” value ([6]; Heptane, 50° C.) was “Form 13”, the “Form; Dry” value [6, 9] was “Form 1” and the “Form; Wet” value [6, 9] was “Form 13”. The “Form; Dry” value ([6]; Heptane/water (5% water), RT) was “Form 12”, the “Form; Wet” value ([6]; Heptane/water (5% water), RT) was “Form 13” and the “Form; Dry” value ([6]; IPAc/water (5% water), 50° C.) was “Form 13”. The “Form; Wet” value ([6]; IPAc/water (5% water), 50° C.) was “Form 13”, the “Form; Dry” value ([6]; MA/water (5% water), RT) was “Form 1” and the “Form; Wet” value ([6]; MA/water (5% water), RT) was “Form 13”. For the same compound, the “Form; Dry” value ([6]; MIBK/water (5% water), 50° C.) was “Form 1”, the “Form; Wet” value ([6]; MIBK/water (5% water), 50° C.) was “Form 13” and the “Form; Dry” value ([6]; MeOH, RT) was “Form 1”. For the same compound, the “Form; Wet” value ([6]; MeOH, RT) was “Form 13”, the “Form; Dry” value ([6]; MeOH/water (5% water), 50° C.) was “Form 13” and the “Form; Wet” value ([6]; MeOH/water (5% water), 50° C.) was “Form 13”. For the same compound, the “Form; Dry” value ([6]; MtBE/water (5% water), 50° C.) was “Form 13”, the “Form; Wet” value ([6]; MtBE/water (5% water), 50° C.) was “Form 13” and the “Form; Dry” value [6, 10] was “Form 13”. For the same compound, the “Form; Wet” value [6, 10] was “Form 13”, the “Form; Dry” value ([6]; Toluene/water (5% water), RT) was “Form 1” and the “Form; Wet” value ([6]; Toluene/water (5% water), RT) was “Form 13”. For the same compound, the “Form; Dry” value [6, 11] was “Form 1”, the “Form; Wet” value [6, 11] was “Form 13” and the “Form; Dry” value ([6]; n-Butanol/water (5% water), RT) was “Form 13”. The “Form; Wet” value ([6]; n-Butanol/water (5% water), RT) was “Form 13”, the “Form; Dry” value [6, 12] was “Form 1” and the “Form; Wet” value [6, 12] was “Form 13”. For the same compound, the “Form; Dry” value [6, 13] was “Form 12”, the “Form; Wet” value [6, 13] was “Form 13” and the “Form; Dry” value ([6]; water, 50° C.) was “Form 13”. For the same compound, the “Form; Wet” value ([6]; water, 50° C.) was “Form 13”, the “Form; Dry” value ([6]; water, RT) was “Form 1” and the “Form; Wet” value ([6]; water, RT) was “Form 13”.
With `CC(C)CC(=O)Nc1cncc(-c2ccc3[nH]nc(-c4nc5c(-c6cccc(F)c6)cncc5[nH]4)c3c2)c1` [starting solid, N-(5-(3-(7-(3-fluorophenyl)-3H-imidazo[4,5-c]pyridin-2-yl)-1H-indazol-5-yl)pyridin-3-yl)-3-methylbutanamide] the “Solubility (in words)” value [7] was “low solubility”.
